Laboratory results: patent publication US12209072B2, “Cyclopentyl acids as LPA antagonists” (BRISTOL-MYERS SQUIBB COMPANY, priority 2018, dated 2025)

These compounds were tested against T1, human LPA1 (Homo sapiens, UniProt Q92633) (assay: LPA1 functional antagonist assay (LPA-induced calcium flux)). Conditions: CHO cells overexpressing human LPA1; inhibition of calcium flux induced by 10 nM LPA; read-out: hLPA1 IC50.
T1 construct: expressed in transfected cells; host or cells: Chinese hamster ovary (CHO) cells
T1 sequence (Q92633 whole entry): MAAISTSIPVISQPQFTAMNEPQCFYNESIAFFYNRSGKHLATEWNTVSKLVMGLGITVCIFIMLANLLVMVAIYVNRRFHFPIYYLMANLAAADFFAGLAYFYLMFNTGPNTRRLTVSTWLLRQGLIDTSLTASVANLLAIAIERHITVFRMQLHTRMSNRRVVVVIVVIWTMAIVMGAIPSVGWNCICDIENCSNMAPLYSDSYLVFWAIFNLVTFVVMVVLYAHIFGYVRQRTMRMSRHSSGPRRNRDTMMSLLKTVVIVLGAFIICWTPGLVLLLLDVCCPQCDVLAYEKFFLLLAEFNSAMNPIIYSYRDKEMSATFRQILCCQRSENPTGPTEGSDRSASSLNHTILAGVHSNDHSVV
Assay type: cell-based
Experimental: The effectiveness of compounds of the present invention as LPA1 inhibitors can be determined in an LPA1 functional antagonist assay as follows:
Chinese hamster ovary cells overexpressing human LPA1 were plated overnight (15,000 cells/well) in poly-D-lysine coated 384-well microplates (Greiner bio-one, Cat #781946) in DMEM/F12 medium (Gibco, Cat #11039). Following overnight culture, cells were loaded with calcium indicator dye (AAT Bioquest Inc, Cat #34601) for 30 minutes at 37° C. The cells were then equilibrated to room temperature for 30 minutes before the assay. Test compounds solubilized in DMSO were transferred to 384 well non-binding surface plates (Corning, Cat #3575) using the Labcyte Echo acoustic dispense and diluted with assay buffer [1×HBSS with calcium/magnesium (Gibco Cat #14025-092), 20 mM HEPES (Gibco Cat #15630-080) and 0.1% fatty acid free BSA (Sigma Cat #A9205)] to a final concentration of 0.5% DMSO. Diluted compounds were added to the cells by FDSS6000 (Hamamatsu) at final concentrations ranging from 0.08 nM to 5 μM. and were then incubated for 20 min at room temperature at which time LPA (Avanti Polar Lipids Cat #857130C) was added at final concentrations of 10 nM to stimulate the cells. The compound IC50 value was defined as the concentration of test compound which inhibited 50% of the calcium flux induced by LPA alone. IC50 values were determined by fitting data to a 4-parameter logistic equation (GraphPad Prism, San Diego CA).

| Compound | IC50 [nM] |
| --- | --- |
| Cc1nc(-c2nnn(C)c2NC(=O)OCC(C)C)ccc1O[C@H]1CC[C@H](CC(=O)O)C1 (racemic) [Example 81, (±)-Trans-2-(3-((6-(5-((isobutoxycarbonyl)amino)-1-methyl-1H-1,2,3-triazol-4-yl)-2-methylpyridin-3-yl)oxy)cyclopentyl)acetic Acid] | 613 |
| Cc1nc(-c2nnn(C)c2CNc2noc(CC3CC3)n2)ccc1O[C@H]1CC[C@H](CC(=O)O)C1 (racemic) [Example 82, (±)-trans-2-[3-({6-[5-({[5-(cyclopropyl-methyl)-1,2,4-oxadiazol-3-yl]amino}methyl)-1-methyl-1H-1,2,3-triazol-4-yl]-2-methylpyridin-3-yl}oxy)cyclo-pentyl]acetic acid] | 572 |
| Cc1nc(-c2onc(C)c2COC(=O)N(C)C2CCCC2)ccc1O[C@H]1CCC[C@H]1CC(=O)O (racemic) [Example 85, (±)-Cis-2-(2-((6-(4-(((cyclopentyl(methyl)carbamoyl)oxy)methyl)-3-methylisoxazol-5-yl)-2-methylpyridin-3-yl)oxy)cyclopentyl)acetic Acid] | 29 |
| CCCCN(C)C(=O)OCc1c(-c2ccc(O[C@@H]3CC[C@@H](CC(=O)O)C3)c(CC)n2)nnn1C (racemic) [Example 86, (±)-2-((trans)-3-((6-(5-(((butyl(methyl)carbamoyl)oxy)methyl)-1-methyl-1H-1,2,3-triazol-4-yl)-2-ethylpyridin-3-yl)oxy)cyclopentyl)acetic acid] | 48 |
| CCc1nc(-c2nnn(C)c2COC(=O)N(C)CC2CCC2)ccc1O[C@@H]1CC[C@@H](CC(=O)O)C1 (racemic) [Example 87, (±)-2-((trans)-3-((6-(5-((((cyclo-butylmethyl)(methyl)carba-moyl)oxy)methyl)-1-methyl-1H-1,2,3-triazol-4-yl)-2-ethyl-pyridin-3-yl)oxy)cyclopentyl)acetic acid] | 46 |
| Cc1nc(-c2nnn(C)c2COC(=O)N(C)CC2CC2)ccc1O[C@H]1CCC[C@H]1CC(=O)O (racemic) [Example 89, (±)-cis-2-(2-((6-(5-((((cyclopropyl-methyl)(methyl)carbamoyl)oxy)methyl)-1-methyl-1H-1,2,3-triazol-4-yl)-2-methylpyridin-3-yl)oxy)cyclopentyl)acetic acid] | 291 |
| CN(C(=O)OCc1c(-c2ccc(O[C@H]3CC[C@@H](C(=O)O)C3)cc2)nnn1C)C1CCCC1 (relative stereo) [Example 11, Cis-3-(4-(5-(((cyclopentyl(methyl)carbamoyl)oxy)methyl)-1-methyl-1H-1,2,3-triazol-4-yl)phenoxy)cyclo-pentane-1-carboxylic acid] | 386 |
| CC(C)CCN(C)C(=O)OCc1c(-c2ccc(O[C@H]3CC[C@@H](C(=O)O)C3)cc2)nnn1C (relative stereo) [Example 12, Cis-3-(4-(5-(((isopentyl(methyl)carbamoyl)oxy)methyl)-1-methyl-1H-1,2,3-triazol-4-yl)phenoxy)cyclo-pentane-1-carboxylic acid] | 448 |
| Cc1noc(-c2ccc(O[C@@H]3CC[C@@H](C(=O)O)C3)cn2)c1CNc1nccc(-c2ccccn2)n1 (relative stereo) [Example 34, trans-3-((6-(3-methyl-4-(((4-(pyridin-2-yl)pyrimidin-2-yl)amino)methyl)isoxazol-5-yl)pyridin-3-yl)oxy)cyclo-pentane-1-carboxylic acid] | 247 |
| Cc1nc(-c2onc(C)c2CNc2nccc(-c3ccccn3)n2)ccc1OC[C@@H]1CC[C@H](C(=O)O)C1 (relative stereo) [Example 35, cis-3-(((2-methyl-6-(3-methyl-4-(((4-(pyridin-2-yl)pyrimidin-2-yl)amino)methyl)isoxazol-5-yl)pyridin-3-yl)oxy)methyl)cyclopentane-1-carboxylic acid] | 9 |
| Cc1nc(-c2nnn(C)c2CNc2nccc(-c3ccccn3)n2)ccc1OC[C@@H]1CC[C@H](C(=O)O)C1 (relative stereo) [Example 36, cis-3-(((2-methyl-6-(1-methyl-5-(((4-(pyridin-2-yl)pyrimidin-2-yl)amino)methyl)-1H-1,2,3-triazol-4-yl)pyridin-3-yl)oxy)methyl)cyclopentane-1-carboxylic acid] | 119 |
| Cc1nc(-c2nnn(C)c2CNc2nccc(-c3ccccn3)n2)ccc1O[C@@H]1CC[C@@H](CC(=O)O)C1 (relative stereo) [Example 38, 2-(trans-3-((2-methyl-6-(1-methyl-5-(((4-(pyridin-2-yl)pyrimidin-2-yl)amino)methyl)-1H-1,2,3-triazol-4-yl)pyridin-3-yl)oxy)cyclopentyl)acetic acid] | 579 |
| Cc1nc(-c2nnn(C)c2CNc2nccc(C(C)C)n2)ccc1O[C@@H]1CC[C@@H](CC(=O)O)C1 (relative stereo) [Example 40, 2-(trans-3-((6-(5-(((4-isopropylpyrimidin-2-yl)amino)methyl)-1-methyl-1H-1,2,3-triazol-4-yl)-2-methylpyridin-3-yl)oxy)cyclopentyl)acetic acid] | 92 |
| Cc1noc(-c2ccc(O[C@H]3CC[C@@H](C(=O)O)C3)cc2)c1NC(=O)O[C@H](C)c1ccccc1 (single isomer, unassigned) [Example 1] | 104 |
| Cc1noc(-c2ccc(O[C@H]3CC[C@H](C(=O)O)C3)cc2)c1NC(=O)O[C@H](C)c1ccccc1 (single isomer, unassigned) [Example 2] | 31 |
| CCCCN(C)C(=O)OCc1c(-c2ccc(O[C@H]3CC[C@H](CC(=O)O)C3)c(C)n2)nnn1C (single isomer, unassigned) [Example 4, (±)-Trans-2-(3-((6-(5-(((butyl(methyl)carbamoyl)oxy)methyl)-1-methyl-1H-1,2,3-triazol-4-yl)-2-methylpyridin-3-yl)oxy)cyclopentyl)acetic Acid] | 15 |

More lines, in order of falling IC50, values ahead:

| IC50 [nM] | Compound |
| --- | --- |
| 1230 | Cc1nc(-c2nnn(C)c2NC(=O)OCC2CC2)ccc1O[C@H]1CC[C@H](CC(=O)O)C1 (racemic) [Example 83, (±)-trans-2-[3-{[6-(5-{(cyclopropylmethoxy)carbonyl]amino}-1-methyl-1H-1,2,3-triazol-4-yl)-2-methyl-pyridin-3-yl]oxy}cyclopentyl]acetic acid] |
| 425 | CCCN(C)C(=O)OCc1c(-c2ccc(O[C@H]3CCC[C@H]3CC(=O)O)c(C)n2)nnn1C (racemic) [Example 88, (±)-cis-2-(2-((2-methyl-6-(1-methyl-5-(((methyl(propyl)carbamoyl)oxy)methyl)-1H-1,2,3-triazol-4-yl)pyridin-3-yl)oxy)cyclopentyl)acetic acid] |
| 325 | Cc1noc(-c2ccc(OC[C@@H]3CC[C@H](C(=O)O)C3)cc2)c1COC(=O)N(C)C1CCCC1 (relative stereo) [Example 41, Cis-3-((4-(4-(((cyclopentyl(methyl)carbamoyl)oxy)methyl)-3-methylisoxazol-5-yl)phenoxy)methyl)cyclopentane-1-carboxylic acid] |
| 172 | Cn1nnc(-c2ccc(OC[C@@H]3CC[C@H](C(=O)O)C3)cn2)c1CNc1nccc(-c2ccccn2)n1 (relative stereo) [Example 37, cis-3-(((6-(1-methyl-5-(((4-(pyridin-2-yl)pyrimidin-2-yl)amino)methyl)-1H-1,2,3-triazol-4-yl)pyridin-3-yl)oxy)methyl)cyclopentane-1-carboxylic acid] |
| 164 | Cc1nc(-c2nnn(C)c2CNc2nccc(C(C)C)n2)ccc1OC[C@@H]1CC[C@H](C(=O)O)C1 (relative stereo) [Example 39, cis-3-(((6-(5-(((4-isopropylpyrimidin-2-yl)amino)methyl)-1-methyl-1H-1,2,3-triazol-4-yl)-2-methylpyridin-3-yl)oxy)methyl)cyclopentane-1-carboxylic acid] |
| 108 | Cc1nc(-c2nnn(C)c2CNc2noc(CCC3CCC3)n2)ccc1O[C@H]1CC[C@H](CC(=O)O)C1 (racemic) [Example 80, (±)-2-(3-((6-(5-(((5-(2-cyclobutylethyl)-1,2,4-oxadiazol-3-yl)amino)methyl)-1-methyl-1H-1,2,3-triazol-4-yl)-2-methylpyridin-3-yl)oxy)cyclopentyl)acetic Acid] |
| 66 | Cc1nc(-c2onc(C)c2COC(=O)N(C)C2CCCC2)ccc1O[C@H]1CC[C@H](C(=O)O)C1 (racemic) [Example 77, (±)-trans-3-({6-[4-({[cyclopentyl(methyl)carbamoyl]oxy}methyl)-3-methyl-1,2-oxazol-5-yl]-2-methyl-pyridin-3-yl}oxy)cyclopentane-1-carboxylic acid] |
| 40 | Cc1noc(-c2ccc(OC[C@@H]3CC[C@H](C(=O)O)C3)cn2)c1CNc1nccc(-c2ccccn2)n1 (relative stereo) [Example 33, cis-3-(((6-(3-methyl-4-(((4-(pyridin-2-yl)pyrimidin-2-yl)amino)methyl)isoxazol-5-yl)pyridin-3-yl)oxy)methyl)cyclopentane-1-carboxylic acid] |
